6 compounds from article PMC9785492 (Viruses, 2022) can be followed below.

Data set [1] concerns influenza A virus (A/Puerto Rico/8/34). The data set is described as follows: microbe, parasite or virus in culture. The following applies: MDCK, read-out: IC50, Inhibition of A/Puerto Rico/8/34 Infection.
A short description of the next data set: in vitro. Particulars: dog.
Data set [2] has as its system influenza A virus (A/Puerto Rico/8/34). The following applies: for IC50: read-out: IC50, Inhibition of A/Puerto Rico/8/34 Infection, MDCK cells, 100 TCID50, MTT-based, 48 h post-infection.
A short description of the next data set: Cytotoxicity MTT assay. Particulars: dog, MDCK cells. For orientation: Formazan colour is commonly taken as a measure of viable cells.
The next data set relates to A/WSN/33 (H1N1). The data set is described as follows: microbe, parasite or virus in culture. The data set is classed as cell-based, Influenza A virus (H1N1). Particulars: Influenza A virus, MDCK.
Another data set deals with A/FM-1/1/47 (H1N1). The data set is described as follows: microbe, parasite or virus in culture. The data set is classed as cell-based. Particulars: Influenza A virus, H1N1, MDCK.
Data set [3] has as its system caveolin-mediated endocytosis in A549 cells. Format: cell-based, human.
The test system of another data set is caveolin-1. Format: cell-based, human.
Data set [4] relates to IAV replication in A549 cells. The data set is classed as cell-based. Particulars: viral protein and gene.
The subject of a further data set is A/Aichi/2/68 (H3N2). The data set is described as follows: microbe, parasite or virus in culture. Format: cell-based. Particulars: Influenza A virus, H3N2, MDCK.
The test system of data set [5] is H5N1 pseudovirus A/Xinjiang/1/2006. The data set is described as follows: organism not typed. Format: cell-based, H5N1 IAV.
Data set [6] relates to influenza viral polymerase activity. The data set is classed as cell-based, Influenza A virus.
Data set [7] has as its system vesicular stomatitis virus G (VSV-G) PsV. The data set is classed as cell-based.
For data set [8], the system named is H5N1 pseudovirus A/Anhui/1/2005. The data set is described as follows: organism not typed. The data set is classed as cell-based, H5N1 IAV.
Data set [9] concerns IAV-induced Ca2+ influx in A549 cells. The data set is described as follows: Intracellular Ca2+ level during IAV infection (BBcellProbeTMF3). The following applies: A/WSN/33. The data set is classed as cell-based, human.
Data set [10] relates to clathrin-mediated endocytosis in A549 cells. The data set is described as follows: Fluorescence confocal assay, Tf-568 uptake. Format: cell-based, human. The following applies: 20 μM, 3 h pre-treatment.
Data set [11] deals with IAV proteins NP and PB2, NP mRNA. Format: cell-based. Particulars: MDCK cells.
Data set [12] relates to H5N1 pseudovirus A/Qinghai/59/2005. The data set is described as follows: organism not typed. Format: cell-based, H5N1 IAV.
The subject of data set [13] is H5N1 pseudovirus A/Hong Kong/156/1997. The data set is described as follows: organism not typed. Format: cell-based, H5N1 IAV.
The test system of data set [14] is clathrin-associated uptake of transferrin in A549 cells. The data set is described as follows: Transferrin absorption test. Particulars: pretreated 3 h, transferrin 15 µg/mL 30 min, Western blotting.

Where two headings read alike, the source gives them in different places.

Turning to `COCCOC(=O)C1=C(C)NC(C)=C(C(=O)OC/C=C/c2ccccc2)C1c1cccc([N+](=O)[O-])c1` (centres unmarked) [Cilnidipine], the IC50 in [1] (48 h) worked out at 14.3 ± 2.66 µM. The same compound registered a CC50 at 48 h in “in vitro” above 200 µM. Also, the “SI (CC50/ IC50)” value in [2] (A/Puerto Rico/8/34) was above 14.02.

Regarding `COCCOC(=O)C1=C(C)NC(C)=C(C(=O)OC(C)C)C1c1cccc([N+](=O)[O-])c1` (centres unmarked) [Nimodipine], the CC50 at 48 h in the data set “Cytotoxicity MTT assay” was above 200 µM. Moreover, in data set [2], the “SI (CC50/ IC50)” value is above 15.58 and the IC50 is 12.8 ± 1.72 µM.

For the compound `COC(=O)C1=C(C)NC(C)=C(C(=O)OCC(C)C)C1c1ccccc1[N+](=O)[O-]` (centres unmarked) [Nisoldipine], the IC50 stood at 4.47 ± 0.25 µM in the data set on A/WSN/33 (H1N1); 6.96 ± 0.78 µM with A/FM-1/1/47 (H1N1); 5.68 ± 0.61 µM in the data set with A/Aichi/2/68 (H3N2); 3.87 ± 0.51 µM in [5]; 2.59 ± 0.46 µM in data set [8]; 4.74 ± 0.76 µM in data set [2]. Further, the IC50 in data set [12] is 5.84 ± 0.64 µM; in data set [13], 4.47 ± 0.47 µM. In the data set “Cytotoxicity MTT assay”, this compound came in with a CC50 at 48 h above 200 µM. Besides, the “CTB-FITC endocytosis (immunostaining)” value in data set [3] is “less immunostaining”. Also, the “expression of caveolin-1” value with caveolin-1 is on record as “reduce the expression of caveolin-1”. Besides, the “IAV replication in A549 cells” value in [4] was “interfered with IAV replication”. For the same compound, the “influenza viral polymerase activity” value in [6] is on record as “did not affect”. Besides, the “inhibition of VSV-G PsV infection” value in [7] is “much less efficiency”. Further, the “IAV-induced Ca2+ influx” value in data set [9] is listed as “inhibited”. In addition, the “transferrin (Tf-568) uptake” value in data set [10] is “decreased”. Besides, in data set [11] (Western blotting, dose-dependent), the “expression of IAV proteins NP and PB2” value is given as “significantly inhibited”. For the same compound, the “NP mRNA expression” value in [11] (qRT-PCR) is given as “decreased”. The internalization of transferrin result in [14] was “markedly reduced”.

With `CCOC(=O)C1=C(C)NC(C)=C(C(=O)OC)C1c1cccc([N+](=O)[O-])c1` (centres unmarked) [Nitrendipine], in “Cytotoxicity MTT assay”, the CC50 at 48 h was 171 ± 14.1 µM. In addition, in data set [2], the “SI (CC50/ IC50)” value was 23.56 and the IC50 was determined as 7.26 ± 1.89 µM.

In the case of `CC(=O)N[C@H]1[C@H]([C@H](O)[C@H](O)CO)OC(C(=O)O)=C[C@@H]1N=C(N)N` [Zanamivir], the IC50 in data set [1] was found to be 0.00126 ± 0.0003 µM. The compound also registered a CC50 at 48 h in the data set “Cytotoxicity MTT assay” above 0.2 µM. In addition, in data set [2], the “SI (CC50/ IC50)” value is listed as above 158.73.

With methyl-β-cyclodextrin [MβCD], the “CTB-FITC endocytosis (immunostaining)” value in data set [3] was “less immunostaining”.
